Laboratory results reported in patent US9045445B2, “Glycine transporter-1 inhibitors, methods of making them, and uses thereof” (Albany Molecular Research, Inc., priority 2010, dated 2015).
Counter-ions that a name gives are not always drawn.

Assays:
[1] = molecular target: T1, glycine transporter-1 (GlyT-1) (Homo sapiens, UniProt P48067); assay: [14C]glycine uptake assay in JAR cells endogenously expressing GlyT-1 (scintillation proximity); type: cell-based; conditions: JAR cells, [14C]glycine 5 μM, 3 hour incubation; read-out: GlyT-1 IC50
T1 construct: JAR cells (ATCC#HTB-144), which endogenously express GlyT-1; host or cells: JAR human choriocarcinoma cells
T1 sequence (P48067 1-706): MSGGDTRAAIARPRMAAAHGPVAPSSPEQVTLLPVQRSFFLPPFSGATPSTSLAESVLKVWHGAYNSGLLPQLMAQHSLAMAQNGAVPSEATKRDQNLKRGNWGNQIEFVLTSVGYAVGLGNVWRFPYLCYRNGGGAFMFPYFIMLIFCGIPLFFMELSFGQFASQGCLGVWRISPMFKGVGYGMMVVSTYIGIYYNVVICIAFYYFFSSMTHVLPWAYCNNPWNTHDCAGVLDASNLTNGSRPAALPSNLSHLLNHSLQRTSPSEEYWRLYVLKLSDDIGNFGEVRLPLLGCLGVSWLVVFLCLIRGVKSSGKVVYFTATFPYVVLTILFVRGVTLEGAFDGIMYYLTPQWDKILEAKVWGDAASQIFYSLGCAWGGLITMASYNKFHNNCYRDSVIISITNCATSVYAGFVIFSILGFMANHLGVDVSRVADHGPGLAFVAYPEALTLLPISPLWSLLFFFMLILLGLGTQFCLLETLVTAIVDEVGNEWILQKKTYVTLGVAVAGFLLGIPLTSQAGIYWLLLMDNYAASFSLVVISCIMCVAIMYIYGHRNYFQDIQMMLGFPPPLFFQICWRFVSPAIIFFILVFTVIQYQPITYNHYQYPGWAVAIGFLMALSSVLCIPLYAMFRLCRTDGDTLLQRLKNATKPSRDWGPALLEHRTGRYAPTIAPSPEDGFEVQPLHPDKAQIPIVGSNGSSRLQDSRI
Outline: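 IC50 comes from a four-parameter fit of nine-point, duplicate curves measuring inhibition of 5 μM [14C]glycine uptake, read by scintillation proximity after 3 h at 37 °C. Cells are human JAR, which express GlyT-1 endogenously, given 10 min compound pre-treatment in pH 7.4 buffer with 5 mM alanine and 0.75% DMSO.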

[2] = molecular target: T2, glycine transporter-2 (GlyT-2) (Homo sapiens, UniProt Q9Y345); assay: [14C]glycine uptake assay in HEK-GlyT-2 transfected cells; type: cell-based; conditions: HEK-GlyT-2 cells
T2 construct: expressed in transfected cells
T2 sequence (Q9Y345 1-797): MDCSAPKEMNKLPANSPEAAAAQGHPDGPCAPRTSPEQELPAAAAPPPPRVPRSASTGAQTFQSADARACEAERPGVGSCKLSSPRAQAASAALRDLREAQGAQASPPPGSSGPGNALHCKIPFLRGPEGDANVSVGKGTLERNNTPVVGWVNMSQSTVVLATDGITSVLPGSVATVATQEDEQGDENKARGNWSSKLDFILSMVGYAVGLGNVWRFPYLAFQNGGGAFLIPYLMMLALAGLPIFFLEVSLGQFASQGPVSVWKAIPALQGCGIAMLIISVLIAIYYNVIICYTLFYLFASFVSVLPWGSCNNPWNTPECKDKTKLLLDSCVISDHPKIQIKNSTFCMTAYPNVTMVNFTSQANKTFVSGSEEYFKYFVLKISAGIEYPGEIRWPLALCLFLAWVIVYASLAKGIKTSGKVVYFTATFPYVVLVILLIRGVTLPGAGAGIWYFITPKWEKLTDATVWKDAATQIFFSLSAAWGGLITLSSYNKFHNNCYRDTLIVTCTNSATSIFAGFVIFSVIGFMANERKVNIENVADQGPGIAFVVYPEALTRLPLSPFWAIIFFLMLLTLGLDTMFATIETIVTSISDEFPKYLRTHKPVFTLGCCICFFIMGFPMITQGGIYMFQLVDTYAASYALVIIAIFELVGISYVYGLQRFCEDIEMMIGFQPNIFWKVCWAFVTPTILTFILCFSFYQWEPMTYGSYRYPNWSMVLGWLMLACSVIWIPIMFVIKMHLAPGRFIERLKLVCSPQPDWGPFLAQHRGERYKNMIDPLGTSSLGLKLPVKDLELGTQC

Compound	IC50 [1]	IC50 [2]
CC1CN(C2(CNC(=O)c3c(F)cccc3F)CCCCC2)CCN1S(=O)(=O)CC1CC1 (stereo not shown) [compound 117, N-((1-(4-(Cyclopropylmethyl-sulfonyl)-3-methylpiperazin-1-yl)cyclohexyl)methyl)-2,6-difluorobenzamide Hydrochloride]	1070 nM	> 75 µM
O=C(NCC1(N2CCN(S(=O)(=O)CC3CC3)CC2)CCCOC1)c1c(F)cccc1F (stereo not shown) [compound 126, N-((3-(4-(Cyclopropylmethyl-sulfonyl)piperazin-1-yl)tetrahydro-2H-pyran-3-yl)methyl)-2,6-difluorobenzamide Hydrochloride]	724 nM	> 75 µM
Cn1cnc(S(=O)(=O)N2CCN(C3(CNC(=O)c4c(F)cc(F)cc4F)CCC(F)(F)CC3)CC2)c1 [compound 167, N-((4,4-Difluoro-1-(4-(1-methyl-1H-imidazol-4-ylsulfonyl)piperazin-1-yl)cyclohexyl)methyl)-2,4,6-trifluorobenzamide Hydrochloride]	11 nM	> 75 µM
CCCS(=O)(=O)N1CCN(C2(CNC(=O)c3ccc(C#N)cc3)CCCCC2)CC1 [compound 17, 4-Cyano-N-((1-(4-(propylsulfonyl)piperazin-1-yl)cyclohexyl)methyl) benzamide Hydrochloride]	647 nM	> 75 µM
CCCS(=O)(=O)N1CCN(C2(CNC(=O)c3ccc(C(F)(F)F)cc3Cl)CCC(F)(F)CC2)C(C)C1 (stereo not shown) [compound 257, 2-Chloro-N-((4,4-difluoro-1-(2-methyl-4-(propylsulfonyl)piperazin-1-yl)cyclohexyl)methyl)-4-(trifluoromethyl) benzamide Hydrochloride]	18 nM	> 75 µM
Cc1cccc(C)c1C(=O)NCC1(N2CCN(S(=O)(=O)c3cn(C)cn3)CC2)CCCCC1 [compound 95, 2,6-Dimethyl-N-((1-(4-(1-methyl-1H-imidazol-4-ylsulfonyl)piperazin-1-yl)cyclohexyl)methyl) benzamide Hydrochloride]	1 nM	> 75 µM
O=C(NCC1(N2CCC(S(=O)(=O)CC3CC3)CC2)CCCCC1)c1ccc(Cl)cc1Cl [compound 200, 2,4-Dichloro-N-((1-(4-(cyclopropylmethyl-sulfonyl)piperidin-1-yl)cyclohexyl)methyl) benzamide Hydrochloride]	1080 nM	> 75 µM
CCCS(=O)(=O)N1CCN(C2(CNC(=O)c3ccc(Br)cc3C)CCCCC2)CC1 [compound 18, 4-Bromo-2-methyl-N-((1-(4-(propylsulfonyl)piperazin-1-yl)cyclohexyl)methyl) benzamide Hydrochloride]	28 nM	> 75 µM
CCCS(=O)(=O)N1CCN(C2(CNC(=O)c3ccc(Cl)c(Cl)c3)CCCCCC2)CC1 [compound 68, 3,4-Dichloro-N-((1-(4-(propylsulfonyl)piperazin-1-yl)cycloheptyl)methyl) benzamide Hydrochloride]	174 nM	3.15 µM
CS(=O)(=O)N1CCN(C2(CNC(=O)c3c(N)cccc3Cl)CCCCC2)CC1 [compound 90, 2-Amino-6-chloro-N-((1-(4-(methylsulfonyl)piperazin-1-yl)cyclohexyl)methyl) benzamide Hydrochloride]	339 nM	> 75 µM
CCCS(=O)(=O)N1CCN(C2(CNC(=O)c3ccc(F)cc3C(F)(F)F)CCCCCC2)CC1 [compound 71, 4-Fluoro-N-((1-(4-(propylsulfonyl)piperazin-1-yl)cycloheptyl)methyl)-2-(trifluoromethyl)benzamide Hydrochloride]	22 nM	> 75 µM
CCS(=O)(=O)N1CCN(C2(CNC(=O)c3c(Cl)cc(C(F)(F)F)cc3Cl)CCC(F)(F)CC2)CC1 [compound 207, 2,6-Dichloro-N-((1-(4-(ethylsulfonyl)piperazin-1-yl)-4,4-difluoro-cyclohexyl)methyl)-4-(trifluoromethyl) benzamide Hydrochloride]	64 nM	> 75 µM
Cn1cnc(S(=O)(=O)N2CCN(C3(CNC(=O)c4c(Cl)cccc4Cl)CCCCCC3)CC2)c1 [compound 106, 2,6-Dichloro-N-((1-(4-(1-methyl-1H-imidazol-4-ylsulfonyl)piperazin-1-yl)cycloheptyl)methyl) benzamide Hydrochloride]	5 nM	> 75 µM
CCCS(=O)(=O)N1CCN(C2(CNC(=O)c3ccc(F)cc3F)CCCCC2)CC1 [compound 39, 2,4-Difluoro-N-((1-(4-(propylsulfonyl)piperazin-1-yl)cyclohexyl)methyl) benzamide Hydrochloride]	132 nM	≥ 75 µM
2-Chloro-N-((4,4-difluoro- 1-(3-(propylsulfonyl)-3,8- diazabicyclo[3.2.1]octan- 8-yl)cyclohexyl)methyl)- 4-(trifluoromethyl) benzamide Hydrochloride [compound 261]	311 nM	> 75 µM
CCCS(=O)(=O)N1CCN(C2(CNC(=O)c3c(F)cccc3OC)CCCCCC2)CC1 [compound 55, 2-Fluoro-6-methoxy-N-((1-(4-(propylsulfonyl)piperazin-1-yl)cycloheptyl)methyl) benzamide Hydrochloride]	14 nM	> 75 µM
CCCS(=O)(=O)N1CCN(C2(CNC(=O)c3c(C(F)(F)F)ccc(Cl)c3F)CCCCC2)CC1 [compound 5, 3-Chloro-2-fluoro-N-((1-(4-(propylsulfonyl)piperazin-1-yl)cyclohexyl)methyl)-6-(trifluoromethyl)benzamide Hydrochloride]	43 nM	≥ 75 µM
CCCS(=O)(=O)N1CCN(C2(CNC(=O)c3c(Cl)cccc3Cl)CCOCC2)CC1 [compound 119, 2,6-Dichloro-N-((4-(4-(propylsulfonyl)piperazin-1-yl)tetrahydro-2H-pyran-4-yl)methyl)benzamide Hydrochloride]	276 nM	> 45 µM
CCCS(=O)(=O)N1CCN(C2(CNC(=O)c3cccc(OC)c3Cl)CCCCCC2)CC1 [compound 65, 2-Chloro-3-methoxy-N-((1-(4-(propylsulfonyl)piperazin-1-yl)cycloheptyl)methyl) benzamide Hydrochloride]	204 nM	> 75 µM
CCCS(=O)(=O)N1CCN(C2(CNC(=O)c3c(N)cccc3F)CCCCC2)CC1 [compound 41, 2-Amino-6-fluoro-N-((1-(4-(propylsulfonyl)piperazin-1-yl)cyclohexyl)methyl) benzamide Hydrochloride]	71 nM	> 75 µM
CCCS(=O)(=O)N1CCN(C2(CNC(=O)c3ccc(-c4ccccc4)cc3)CCCCC2)CC1 [compound 38, N-((1-(4-(Propylsulfonyl)piperazin-1-yl)cyclohexyl)methyl) biphenyl-4-carboxamide Hydrochloride]	172 nM	1.4 µM
CCCS(=O)(=O)N1CCN(C2(CNC(=O)c3c(C)cc(F)cc3OC)CCCCC2)CC1 [compound 19, 4-Fluoro-2-methoxy-6-methyl-N-((1-(4-(propyl-sulfonyl)piperazin-1-yl)cyclohexyl)methyl) benzamide Hydrochloride]	15 nM	39 µM
Cn1cnc(S(=O)(=O)N2CCN(C3(CNC(=O)c4c(F)cccc4F)CCCOC3)CC2)c1 (stereo not shown) [compound 127, 2,6-Difluoro-N-((3-(4-(1-methyl-1H-imidazol-4-ylsulfonyl)piperazin-1-yl)tetrahydro-2H-pyran-3-yl)methyl)benzamide Hydrochloride]	369 nM	> 75 µM
